In the kinase profiling compilation of Christmann-Franck et al. (2016):
Several values for one entry are separate records, joined by “and”; a condition that tells them apart may be missing. Identical values can stand only once. Blank lines part the entries; values can stand above or below the compound they belong to.

Columns and labels:
Experiment in all cases: radiometric filter-binding kinase assay, Kinase HotSpot
Conditions in all cases: compound 0.5 µM; ATP 10 µM
[1] = target: WEE1 (human) (UniProt P30291)
[2] = target: STK16 (human) (UniProt O75716)
[3] = target: GSK3B (human) (UniProt P49841)
[4] = target: EPHA1 (human) (UniProt P21709)
[5] = target: ABL2 (human) (UniProt P42684)
[6] = target: PIM3 (human) (UniProt Q86V86)
[7] = target: DYRK4 (human) (UniProt Q9NR20)
[8] = target: PASK (human) (UniProt Q96RG2)
[9] = target: MAPK13 (human) (UniProt O15264)
[10] = target: FGFR3 (human) (UniProt P22607)
[11] = target: TYK2 JH1 catalytic (human) (UniProt P29597)
[12] = target: VRK1 (human) (UniProt Q99986)
Chain of VRK1 (human) (Q99986 whole entry, looked up): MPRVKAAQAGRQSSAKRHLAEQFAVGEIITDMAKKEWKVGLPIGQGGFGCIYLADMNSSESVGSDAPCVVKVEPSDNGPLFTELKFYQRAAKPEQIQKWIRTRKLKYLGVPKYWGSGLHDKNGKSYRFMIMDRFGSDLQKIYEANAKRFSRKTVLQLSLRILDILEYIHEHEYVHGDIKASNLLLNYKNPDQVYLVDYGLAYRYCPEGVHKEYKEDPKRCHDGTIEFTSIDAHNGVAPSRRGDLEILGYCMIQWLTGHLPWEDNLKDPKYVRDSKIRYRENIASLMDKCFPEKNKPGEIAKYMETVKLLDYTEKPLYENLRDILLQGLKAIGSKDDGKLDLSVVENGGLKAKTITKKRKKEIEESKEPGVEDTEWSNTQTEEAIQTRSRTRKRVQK

[13] = target: MKNK2 (human) (UniProt Q9HBH9)
[14] = target: HCK (human) (UniProt P08631)
[15] = target: CSNK2A2 (human) (UniProt P19784)
[16] = target: CSNK1G1 (human) (UniProt Q9HCP0)
Chain of CSNK1G1 (human) (Q9HCP0 whole entry, looked up): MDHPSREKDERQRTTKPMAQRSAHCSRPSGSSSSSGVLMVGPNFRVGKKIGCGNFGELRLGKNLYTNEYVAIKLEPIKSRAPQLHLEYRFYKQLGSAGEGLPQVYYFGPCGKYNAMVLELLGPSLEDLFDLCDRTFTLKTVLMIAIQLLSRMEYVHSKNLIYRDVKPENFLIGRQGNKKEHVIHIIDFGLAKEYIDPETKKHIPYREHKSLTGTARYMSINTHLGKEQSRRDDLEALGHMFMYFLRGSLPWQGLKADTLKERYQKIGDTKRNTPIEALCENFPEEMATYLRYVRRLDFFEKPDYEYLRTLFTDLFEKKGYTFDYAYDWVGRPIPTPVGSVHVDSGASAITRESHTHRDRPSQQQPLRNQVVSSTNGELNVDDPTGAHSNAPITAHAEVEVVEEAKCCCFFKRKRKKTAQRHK

[17] = target: PLK2 (human) (UniProt Q9NYY3)
Chain of PLK2 (human) (Q9NYY3 whole entry, looked up): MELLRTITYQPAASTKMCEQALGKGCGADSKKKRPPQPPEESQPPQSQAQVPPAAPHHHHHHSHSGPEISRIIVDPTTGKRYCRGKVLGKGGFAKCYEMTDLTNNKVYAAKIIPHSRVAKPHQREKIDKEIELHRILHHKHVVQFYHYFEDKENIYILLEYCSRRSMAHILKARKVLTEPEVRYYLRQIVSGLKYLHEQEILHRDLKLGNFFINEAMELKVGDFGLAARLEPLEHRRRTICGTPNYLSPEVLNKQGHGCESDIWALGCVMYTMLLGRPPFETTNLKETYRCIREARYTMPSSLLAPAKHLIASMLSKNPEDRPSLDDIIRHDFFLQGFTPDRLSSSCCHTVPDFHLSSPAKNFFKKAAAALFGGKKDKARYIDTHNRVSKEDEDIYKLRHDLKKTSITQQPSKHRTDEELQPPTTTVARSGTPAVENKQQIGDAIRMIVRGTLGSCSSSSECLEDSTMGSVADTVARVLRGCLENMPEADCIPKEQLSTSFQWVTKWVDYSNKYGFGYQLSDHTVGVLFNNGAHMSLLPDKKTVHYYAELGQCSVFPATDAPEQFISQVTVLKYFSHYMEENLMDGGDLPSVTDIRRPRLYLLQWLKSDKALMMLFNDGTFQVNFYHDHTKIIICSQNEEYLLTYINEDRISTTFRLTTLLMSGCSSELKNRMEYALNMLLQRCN

[18] = target: GSG2 (human) (UniProt Q8TF76)
[19] = target: NUAK2 (human) (UniProt Q9H093)
[20] = target: FRK (human) (UniProt P42685)
[21] = target: FES (human) (UniProt P07332)
[22] = target: WNK3 (human) (UniProt Q9BYP7)
[23] = target: PRKG1 (human) (UniProt Q13976)
[24] = target: SRPK1 (human) (UniProt Q96SB4)
[25] = target: FYN (human) (UniProt P06241)
[26] = target: PRKACG (human) (UniProt P22612)
Chain of PRKACG (human) (P22612 whole entry, looked up): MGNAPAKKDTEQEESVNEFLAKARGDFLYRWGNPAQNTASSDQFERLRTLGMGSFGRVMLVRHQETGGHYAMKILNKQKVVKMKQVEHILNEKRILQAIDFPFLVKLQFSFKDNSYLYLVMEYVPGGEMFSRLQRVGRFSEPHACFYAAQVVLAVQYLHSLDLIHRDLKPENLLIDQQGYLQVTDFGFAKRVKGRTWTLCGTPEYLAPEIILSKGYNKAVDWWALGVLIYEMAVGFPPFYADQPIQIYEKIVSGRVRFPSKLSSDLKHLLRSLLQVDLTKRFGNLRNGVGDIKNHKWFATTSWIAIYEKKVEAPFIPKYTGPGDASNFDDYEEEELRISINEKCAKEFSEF

[27] = target: ULK3 (human) (UniProt Q6PHR2)
[28] = target: JAK1 JH1 catalytic (human) (UniProt P23458)
[29] = target: MET (human) (UniProt P08581)
Chain of MET (human) (P08581 whole entry, looked up): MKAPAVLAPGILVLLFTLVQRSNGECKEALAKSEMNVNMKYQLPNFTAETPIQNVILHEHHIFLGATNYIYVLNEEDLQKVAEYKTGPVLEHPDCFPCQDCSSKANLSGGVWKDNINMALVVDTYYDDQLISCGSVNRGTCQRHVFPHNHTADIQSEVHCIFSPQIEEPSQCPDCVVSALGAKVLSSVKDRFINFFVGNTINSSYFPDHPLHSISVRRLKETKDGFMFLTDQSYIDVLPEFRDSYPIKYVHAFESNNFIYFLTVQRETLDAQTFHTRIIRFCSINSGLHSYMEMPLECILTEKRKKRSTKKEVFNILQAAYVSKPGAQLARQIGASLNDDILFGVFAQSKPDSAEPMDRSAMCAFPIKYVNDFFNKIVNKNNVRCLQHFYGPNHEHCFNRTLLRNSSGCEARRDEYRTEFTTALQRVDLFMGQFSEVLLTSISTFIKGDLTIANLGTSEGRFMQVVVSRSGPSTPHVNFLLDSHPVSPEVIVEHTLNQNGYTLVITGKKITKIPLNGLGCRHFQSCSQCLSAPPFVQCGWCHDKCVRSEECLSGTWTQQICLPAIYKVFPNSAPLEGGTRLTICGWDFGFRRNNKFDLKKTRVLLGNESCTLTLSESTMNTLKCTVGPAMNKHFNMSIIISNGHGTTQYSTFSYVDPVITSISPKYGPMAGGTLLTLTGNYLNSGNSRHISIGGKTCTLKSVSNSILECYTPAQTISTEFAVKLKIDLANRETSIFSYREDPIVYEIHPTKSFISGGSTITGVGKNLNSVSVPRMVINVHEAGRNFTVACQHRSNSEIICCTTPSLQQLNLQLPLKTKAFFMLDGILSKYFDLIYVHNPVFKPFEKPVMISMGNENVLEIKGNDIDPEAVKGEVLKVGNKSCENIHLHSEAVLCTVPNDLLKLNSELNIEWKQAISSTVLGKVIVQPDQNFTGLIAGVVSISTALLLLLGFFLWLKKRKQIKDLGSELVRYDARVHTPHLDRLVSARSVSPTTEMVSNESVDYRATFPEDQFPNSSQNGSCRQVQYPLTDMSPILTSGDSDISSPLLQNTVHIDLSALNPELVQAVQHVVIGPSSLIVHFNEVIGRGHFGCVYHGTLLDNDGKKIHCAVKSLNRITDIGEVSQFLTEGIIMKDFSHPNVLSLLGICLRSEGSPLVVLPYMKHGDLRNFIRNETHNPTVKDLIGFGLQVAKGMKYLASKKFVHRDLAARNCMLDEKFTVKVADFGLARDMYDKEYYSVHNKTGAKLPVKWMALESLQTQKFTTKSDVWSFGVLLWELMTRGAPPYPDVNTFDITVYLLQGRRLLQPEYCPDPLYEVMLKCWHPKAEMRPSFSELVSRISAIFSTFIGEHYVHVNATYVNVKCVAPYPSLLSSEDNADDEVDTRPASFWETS

[30] = target: LIMK1 (human) (UniProt P53667)
[31] = target: DCLK2 (human) (UniProt Q8N568)
[32] = target: CAMKK1 (human) (UniProt Q8N5S9)
[33] = target: PNCK (human) (UniProt Q6P2M8)
Chain of PNCK (human) (Q6P2M8 whole entry, looked up): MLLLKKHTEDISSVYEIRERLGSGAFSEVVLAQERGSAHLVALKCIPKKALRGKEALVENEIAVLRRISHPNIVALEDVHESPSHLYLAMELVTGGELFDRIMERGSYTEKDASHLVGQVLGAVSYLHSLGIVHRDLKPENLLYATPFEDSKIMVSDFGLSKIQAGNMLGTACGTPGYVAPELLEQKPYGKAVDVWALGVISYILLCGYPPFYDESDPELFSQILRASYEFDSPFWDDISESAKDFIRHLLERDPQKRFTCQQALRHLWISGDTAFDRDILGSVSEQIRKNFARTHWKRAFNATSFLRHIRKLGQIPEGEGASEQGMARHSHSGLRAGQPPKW

[34] = target: MAP2K1 (human) (UniProt Q02750)
Chain of MAP2K1 (human) (Q02750 whole entry, looked up): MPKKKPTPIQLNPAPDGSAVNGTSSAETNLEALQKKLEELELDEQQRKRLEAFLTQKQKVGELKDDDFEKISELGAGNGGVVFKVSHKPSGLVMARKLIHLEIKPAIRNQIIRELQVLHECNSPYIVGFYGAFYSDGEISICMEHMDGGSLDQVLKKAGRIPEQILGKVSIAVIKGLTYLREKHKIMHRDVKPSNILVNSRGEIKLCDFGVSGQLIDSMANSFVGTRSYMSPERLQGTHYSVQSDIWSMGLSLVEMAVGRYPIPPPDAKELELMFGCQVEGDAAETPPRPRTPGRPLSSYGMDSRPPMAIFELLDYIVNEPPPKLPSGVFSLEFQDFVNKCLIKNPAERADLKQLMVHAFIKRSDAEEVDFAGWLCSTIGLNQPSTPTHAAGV

[35] = target: MYO3B (human) (UniProt Q8WXR4)
[36] = target: AURKB (human) (UniProt Q96GD4)
[37] = target: EPHB2 (human) (UniProt P29323)
[38] = target: FGFR1 (human) (UniProt P11362)
[39] = target: AKT3 (human) (UniProt Q9Y243)
[40] = target: EPHA6 (human) (UniProt Q9UF33)
[41] = target: BMX (human) (UniProt P51813)
[42] = target: PTK2B (human) (UniProt Q14289)
Chain of PTK2B (human) (Q14289 whole entry, looked up): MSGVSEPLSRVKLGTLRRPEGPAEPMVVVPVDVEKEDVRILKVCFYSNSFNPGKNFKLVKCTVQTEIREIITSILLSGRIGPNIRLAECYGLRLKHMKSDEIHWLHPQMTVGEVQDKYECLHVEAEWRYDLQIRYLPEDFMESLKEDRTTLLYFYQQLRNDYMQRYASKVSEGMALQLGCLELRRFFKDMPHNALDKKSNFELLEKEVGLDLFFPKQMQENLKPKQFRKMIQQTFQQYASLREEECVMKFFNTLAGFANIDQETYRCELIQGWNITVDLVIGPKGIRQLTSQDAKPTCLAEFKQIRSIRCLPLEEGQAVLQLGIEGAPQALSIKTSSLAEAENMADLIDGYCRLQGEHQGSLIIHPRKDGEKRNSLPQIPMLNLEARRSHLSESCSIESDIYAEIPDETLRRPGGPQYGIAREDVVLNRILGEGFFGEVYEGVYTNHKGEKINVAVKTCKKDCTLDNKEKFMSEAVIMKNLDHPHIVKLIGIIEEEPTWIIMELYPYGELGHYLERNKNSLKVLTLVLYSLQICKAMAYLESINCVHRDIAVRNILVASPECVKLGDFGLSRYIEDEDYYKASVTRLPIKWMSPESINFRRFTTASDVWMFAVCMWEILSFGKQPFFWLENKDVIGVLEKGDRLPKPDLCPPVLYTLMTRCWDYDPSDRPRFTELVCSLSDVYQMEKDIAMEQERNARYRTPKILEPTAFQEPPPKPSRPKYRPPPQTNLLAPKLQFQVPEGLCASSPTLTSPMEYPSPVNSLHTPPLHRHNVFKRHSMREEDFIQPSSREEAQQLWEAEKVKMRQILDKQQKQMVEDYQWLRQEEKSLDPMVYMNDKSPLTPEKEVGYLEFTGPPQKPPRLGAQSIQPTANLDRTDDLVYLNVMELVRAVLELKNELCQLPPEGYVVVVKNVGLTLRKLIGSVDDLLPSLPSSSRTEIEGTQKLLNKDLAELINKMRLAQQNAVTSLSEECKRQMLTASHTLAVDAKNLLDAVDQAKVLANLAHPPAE

Structure (SMILES): COc1ccc2c(c1)/C(=C/c1cnc[nH]1)C(O)=N2
residual activity [1]: 94.2% | residual activity [2]: 76.2% | residual activity [3]: 35.4% | residual activity [4]: 97.3% | residual activity [5]: 90.6% | residual activity [6]: 99% | residual activity [7]: 98.5% | residual activity [8]: 93.4% | residual activity [9]: 102% | residual activity [10]: 65% | residual activity [11]: 45% | residual activity [12]: 91.2% | residual activity [13]: 84.9% | residual activity [14]: 96.1% | residual activity [15]: 77.5% | residual activity [16]: 106% | residual activity [17]: 95.2% | residual activity [18]: 72.2% | residual activity [19]: 116% | residual activity [20]: 96.4% | residual activity [21]: 97% | residual activity [22]: 88.5% | residual activity [23]: 91.7% and 99% | residual activity [24]: 98% | residual activity [25]: 81.2% | residual activity [26]: 110% | residual activity [27]: 67.9% | residual activity [28]: 83.8% | residual activity [29]: 103% | residual activity [30]: 89.6% | residual activity [31]: 96% | residual activity [32]: 91.3% | residual activity [33]: 86.3% | residual activity [34]: 94.8% | residual activity [35]: 88% | residual activity [36]: 40% | residual activity [37]: 100% | residual activity [38]: 73.2% | residual activity [39]: 101% | residual activity [40]: 91.3% | residual activity [41]: 100%

Structure (SMILES): C[C@@H]1CCN(C(=O)CC#N)C[C@@H]1N(C)c1ncnc2[nH]ccc12
residual activity [1]: 97.7% | residual activity [2]: 94.7% | residual activity [3]: 99.6% | residual activity [4]: 98% | residual activity [5]: 90.5% | residual activity [6]: 96.5% | residual activity [7]: 97.2% | residual activity [8]: 105% | residual activity [10]: 95.3% | residual activity [11]: 12% | residual activity [12]: 100% | residual activity [13]: 97.4% | residual activity [14]: 88.3% | residual activity [15]: 96.6% | residual activity [16]: 101% | residual activity [17]: 102% | residual activity [18]: 77.9% | residual activity [19]: 80.3% | residual activity [20]: 106% | residual activity [21]: 104% | residual activity [22]: 104% | residual activity [23]: 82% and 87.8% | residual activity [24]: 99.8% | residual activity [26]: 111% | residual activity [27]: 101% | residual activity [29]: 86.7% | residual activity [30]: 82% | residual activity [31]: 96.6% | residual activity [32]: 101% | residual activity [33]: 104% | residual activity [34]: 112% | residual activity [35]: 89.3% | residual activity [36]: 99.2% | residual activity [37]: 100% | residual activity [38]: 101% | residual activity [39]: 85.8% | residual activity [40]: 99% | residual activity [41]: 111%

residual activity [1]: 89.3% | residual activity [2]: 47.9% | residual activity [4]: 93.5% | residual activity [6]: 60.8% | residual activity [7]: 96.4% | residual activity [8]: 90.9% | residual activity [9]: 104% | residual activity [42]: 58.2% | residual activity [11]: 8.26% | residual activity [12]: 90.8% | residual activity [14]: 14.9% | residual activity [15]: 87.8% | residual activity [16]: 103% | residual activity [17]: 97.5% | residual activity [18]: 70.2% | residual activity [19]: 26.2% | residual activity [20]: 65.8% | residual activity [21]: 48.3% | residual activity [22]: 91.4% | residual activity [23]: 18.8% and 8.37% | residual activity [24]: 97.1% | residual activity [25]: 34% | residual activity [26]: 58.1% | residual activity [27]: 37% | residual activity [28]: 16.3% | residual activity [29]: 89.4% | residual activity [30]: 19.6% | residual activity [31]: 101% | residual activity [32]: 20.4% | residual activity [33]: 92.9% | residual activity [34]: 109% | residual activity [35]: 53.7% | residual activity [36]: 2.96% | residual activity [38]: 36.1% | residual activity [39]: 55.1% | residual activity [40]: 79.5% | residual activity [41]: 32%
Structure (SMILES): CO[C@@H]1[C@H](N(C)C(=O)c2ccccc2)C[C@H]2O[C@]1(C)n1c3ccccc3c3c4c(c5c6ccccc6n2c5c31)C(=O)NC4

Structure (SMILES): Cc1cncc2cccc(S(=O)(=O)N3CCCN(C(=O)CN)C[C@H]3C)c12
residual activity [1]: 96.3% | residual activity [2]: 97.9% | residual activity [4]: 89.2% | residual activity [5]: 98.9% | residual activity [6]: 103% | residual activity [7]: 90.3% | residual activity [8]: 105% | residual activity [9]: 119% | residual activity [42]: 92.5% | residual activity [10]: 97.7% | residual activity [11]: 86.6% | residual activity [12]: 102% | residual activity [13]: 83.8% | residual activity [14]: 96.4% | residual activity [15]: 99.3% | residual activity [16]: 92.4% | residual activity [17]: 101% | residual activity [18]: 99.4% | residual activity [19]: 125% | residual activity [20]: 114% | residual activity [21]: 102% | residual activity [22]: 97.3% | residual activity [23]: 78.7% and 85% | residual activity [24]: 103% | residual activity [25]: 94.2% | residual activity [26]: 112% | residual activity [27]: 83.2% | residual activity [28]: 108% | residual activity [29]: 104% | residual activity [30]: 91.9% | residual activity [31]: 89% | residual activity [32]: 115% | residual activity [33]: 101% | residual activity [34]: 94.9% | residual activity [35]: 104% | residual activity [36]: 34.9% | residual activity [38]: 85.7% | residual activity [39]: 98.8% | residual activity [40]: 92.2% | residual activity [41]: 94%

Structure (SMILES): COc1cc(Nc2c(C#N)cnc3cc(OCCCN4CCN(C)CC4)c(OC)cc23)c(Cl)cc1Cl
residual activity [1]: 40.5% | residual activity [2]: 85.1% | residual activity [3]: 99.9% | residual activity [4]: 97.7% | residual activity [5]: 2.19% | residual activity [6]: 97.7% | residual activity [7]: 97.9% | residual activity [8]: 109% | residual activity [9]: 91.2% | residual activity [42]: 32.6% | residual activity [10]: 82.6% | residual activity [11]: 98.1% | residual activity [12]: 100% | residual activity [13]: 98.7% | residual activity [14]: 11.9% | residual activity [15]: 108% | residual activity [16]: 95.7% | residual activity [17]: 100% | residual activity [18]: 65.6% | residual activity [19]: 59.5% | residual activity [20]: 29.2% | residual activity [22]: 91.8% | residual activity [23]: 85.5% and 94.9% | residual activity [24]: 98.5% | residual activity [25]: 29.4% | residual activity [26]: 99.2% | residual activity [27]: 100% | residual activity [28]: 99% | residual activity [29]: 84.5% | residual activity [30]: 96.4% | residual activity [31]: 98.4% | residual activity [32]: 84.8% | residual activity [33]: 109% | residual activity [35]: 40.3% | residual activity [36]: 83.1% | residual activity [37]: 17.4% | residual activity [38]: 64.4% | residual activity [39]: 90.7% | residual activity [40]: 4.38%
